Read-outs that look alike come from different tables or passages of the source.
N[C@@H](CCC(=O)N[C@@H](CS)C(=O)NCC(=O)O)C(=O)O [Comparative Example 1, Glutathione]
Relative concentration of reduced glutathione (GSH) (Immediately after loading, 25 °C, light blocked): 1.00 | Relative concentration of reduced glutathione (GSH) (water, 4380 h): 0.21 | glutathione concentration compared to the initial concentration (water, 4380 h): about 20% | Relative concentration of reduced glutathione (GSH) (water, 8766 h): 0.06 | glutathione concentration compared to the initial concentration (water, 8766 h): about 6%

Reference: patent EP4817594A1, “SKIN CONDITION IMPROVEMENT COMPOSITION COMPRISING GLUTATHIONE-CONTAINING EXOSOME-LIKE VESICLES” (Cosmax, Inc., priority 2023, dated 2025)
